From patent publication US10681908B2, “Molecules having pesticidal utility, and intermediates, compositions, and processes, related thereto” (Dow AgroSciences LLC, priority 2016, dated 2020)

How the values were obtained:
Type in all cases: in vivo
[1] = system: Beet Armyworm (Spodoptera exigua, LAPHEG); assay: Bioassay on Beet Armyworm (BAW), 128-well diet tray assay; conditions: 168 h, 50 μg/cm^2 on artificial diet, second instar larvae, five to seven days, 25° C., read-out: BAW % Control (or Mortality) rating
Summary of the method: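 Mortality of second-instar larvae (one to five per well) was scored after five to seven days at 25 °C under 14:10 light-dark and averaged across eight wells. Each well's diet had received 50 μg/cm^2 test molecule from a 90:10 acetone-water solution, allowed to dry before infestation.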

[2] = system: Cabbage Looper (Trichoplusia ni, TRIPNI); assay: Bioassay on Cabbage Looper (CL), 128-well diet tray assay; conditions: 168 h, 50 μg/cm^2 on artificial diet, second instar larvae, five to seven days, 25° C., read-out: CL % Control (or Mortality) rating
Summary of the method: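 Percent mortality, averaged over eight wells, scored after five to seven days at 25° C. under 14:10 light-dark. Each well held 1–5 second-instar larvae on artificial diet treated with 50 μg/cm^2 test molecule applied in 90:10 acetone-water and dried.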

[3] = system: Yellow Fever Mosquito (Aedes aegypti, AEDSAE); conditions: about 1 day-old larvae, 3 days, room temperature, scored on mortality
Experimental: Example C: Bioassays on Yellow Fever Mosqurro (Aedes aegypti, AEDSAE) (“YFM”)
Certain molecules disclosed in this document were tested against YFM using procedures described in the following paragraph. In the reporting of the results, the “GPA & YFM Rating Table” was used (See Table Section).
Master plates containing 400 μg of a molecule dissolved in 100 μL of dimethyl sulfoxide (DMSO) (equivalent to a 4000 ppm solution) are used. A master plate of assembled molecules contains 15 μL per well. To this plate, 135 μL of a 90:10 water:acetone mixture is added to each well. A robot (Biomek® NXP Laboratory Automation Workstation) is programmed to dispense 15 μL aspirations from the master plate into an empty 96-well shallow plate (“daughter” plate). There are 6 reps (“daughter” plates) created per master. The created daughter plates are then immediately infested with YFM larvae.
The day before plates are to be treated, mosquito eggs are placed in Millipore water containing liver powder to begin hatching (4 g. into 400 mL). After the daughter plates are created using the robot, they are infested with 220 μL of the liver powder/larval mosquito mixture (about 1 day-old larvae). After plates are infested with mosquito larvae, a non-evaporative lid is used to cover the plate to reduce drying. Plates are held at room temperature for 3 days prior to grading. After 3 days, each well is observed and scored based on mortality. The results are indicated in the table entitled “Table ABC: Biological Results” (See Table Section).

SMILES: O=C(NCCSCCF)c1ccc(/C(F)=C/C(c2cc(Cl)c(Cl)c(Cl)c2)C(F)(F)F)cc1C(F)(F)F (stereo not shown) [F125, (Z)—N-(2-((2-Fluoroethyl)thio)ethyl)-4-(1,4,4,4-tetrafluoro-3-(3,4,5-trichlorophenyl)but-1-en-1-yl)-2-(trifluoromethyl)benzamide]
- mortality at 50 µg/cm2 [1]: 50 to 100%
- mortality at 50 µg/cm2 [2]: 50 to 100%
- YFM % Control (or Mortality) rating [3]: D (No activity noticed in this bioassay)

SMILES: Cc1cc(C(/C=C(\F)c2ccc(C(=O)N[C@H](C)CS(=O)(=O)CC(F)(F)F)c(C(F)(F)F)c2)C(F)(F)F)cc(Cl)c1Cl (stereo partly drawn) [F78, 4-((Z)-3-(3,4-Dichloro-5-methylphenyl)-1,4,4,4-tetrafluorobut-1-en-1-yl)-N—((R)-1-((2,2,2-trifluoroethyl)sulfonyl)propan-2-yl)-2-(trifluoromethyl)benzamide]
- mortality at 50 µg/cm2 [1]: 50 to 100%
- mortality at 50 µg/cm2 [2]: 50 to 100%
- YFM % Control (or Mortality) rating [3]: B (More than 0-Less than 80)

SMILES: C=Cc1c(Cl)cc(C(/C=C(\F)c2ccc(C(=O)N[C@H](C)CS(=O)(=O)CC)c(C(F)(F)F)c2)C(F)(F)F)cc1Cl (stereo partly drawn) [F119, 4-((Z)-3-(3,5-Dichloro-4-vinylphenyl)-1,4,4,4-tetrafluorobut-1-en-1-yl)-N—((R)-1-(ethylsulfonyl)propan-2-yl)-2-(trifluoromethyl)benzamide]
- mortality at 50 µg/cm2 [1]: 50 to 100%
- mortality at 50 µg/cm2 [2]: 50 to 100%
- YFM % Control (or Mortality) rating [3]: A (80-100)

SMILES: C[C@H](CS(=O)(=O)CC(F)(F)F)NC(=O)c1ccc(/C(F)=C/C(c2ccc(Br)c(Cl)c2)C(F)(F)F)cc1C(F)(F)F (stereo partly drawn) [PF5, 4-((Z)-3-(4-Bromo-3-chlorophenyl)-1,4,4,4-tetrafluorobut-1-en-1-yl)-N—((R)-1-((2,2,2-trifluoroethyl)sulfonyl)propan-2-yl)-2-(trifluoromethyl)benzamide]
- mortality at 50 µg/cm2 [1]: 50 to 100%
- mortality at 50 µg/cm2 [2]: 50 to 100%
- YFM % Control (or Mortality) rating [3]: B (More than 0-Less than 80)

SMILES: C[C@H](C[S+]([O-])CC(F)(F)F)NC(=O)c1ccc(/C(F)=C/C(c2cc(Br)c(Cl)c(Br)c2)C(F)(F)F)cc1C(F)(F)F (stereo partly drawn) [F23, 4-((Z)-3-(3,5-Dibromo-4-chlorophenyl)-1,4,4,4-tetrafluorobut-1-en-1-yl)-N-((2R)-1-((2,2,2-trifluoroethyl)sulfinyl)propan-2-yl)-2-(trifluoromethyl)benzamide]
- mortality at 50 µg/cm2 [1]: 50 to 100%
- mortality at 50 µg/cm2 [2]: 50 to 100%
- YFM % Control (or Mortality) rating [3]: A (80-100)

SMILES: C[C@H](CSCC(F)(F)F)NC(=O)c1ccc(/C(F)=C/C(c2cc(Br)cc(Br)c2)C(F)(F)F)cc1C(F)(F)F (stereo partly drawn) [F30, 4-((Z)-3-(3,5-Dibromophenyl)-1,4,4,4-tetrafluorobut-1-en-1-yl)-N—((R)-1-((2,2,2-trifluoroethyl)thio)propan-2-yl)-2-(trifluoromethyl)benzamide]
- mortality at 50 µg/cm2 [1]: 50 to 100%
- mortality at 50 µg/cm2 [2]: 50 to 100%
- YFM % Control (or Mortality) rating [3]: A (80-100)

SMILES: C[C@H](CS(=O)(=O)CC(F)(F)F)NC(=O)c1ccc(/C(F)=C/C(c2cc(Cl)cc(Br)c2)C(F)(F)F)cc1C(F)(F)F (stereo partly shown) [F65]
- mortality at 50 µg/cm2 [1]: 50 to 100%
- mortality at 50 µg/cm2 [2]: 50 to 100%
- YFM % Control (or Mortality) rating [3]: B (More than 0-Less than 80)

SMILES: O=C(NCCSC(F)(F)F)c1ccc(/C(F)=C/C(c2cc(Cl)c(Cl)c(Cl)c2)C(F)(F)F)cc1C(F)(F)F (stereo not shown) [F92, (Z)-4-(1,4,4,4-tetrafluoro-3-(3,4,5-trichlorophenyl)but-1-en-1-yl)-2-(trifluoromethyl)-N-(2-((trifluoromethyl)thio)ethyl)benzamide]
- mortality at 50 µg/cm2 [1]: 50 to 100%
- mortality at 50 µg/cm2 [2]: 50 to 100%
- YFM % Control (or Mortality) rating [3]: B (More than 0-Less than 80)

SMILES: CCS(=O)(=O)C[C@@H](C)NC(=O)c1ccc(/C(F)=C/C(c2cc(Br)c(Cl)c(Br)c2)C(F)(F)F)cc1C(F)(F)F (stereo partly drawn) [F56, 4-((Z)-3-(3,5-Dibromo-4-chlorophenyl)-1,4,4,4-tetrafluorobut-1-en-1-yl)-N—((R)-1-(ethylsulfonyl)propan-2-yl)-2-(trifluoromethyl)benzamide]
- YFM % Control (or Mortality) rating [3]: A (80-100)
